Test results as given in US7569569B2, “Pyrrolo[2,3-d]pyrimidine compounds” (Pfizer Inc., priority 1998, dated 2009).

C#Cc1c[nH]c2ncnc(N3CCCCC3)c12 [Example 79, 5-Ethynyl-4-piperidin-1-yl-7H-pyrrolo[2,3-d]pyrimidine] gave a melting point of 179 to 181 °C. For Clc1c[nH]c2ncnc(N3CCCC4CCCCC43)c12 (stereo not drawn) [Example 39, 1-(5-Chloro-7H-pyrrolo[2,3-d]pyrimidin-4-yl)-decahydro-quinoline], the melting point was 190 to 192 °C. In the case of c1nc(N2CCCCCCC2)c2cc[nH]c2n1 [Example 17, 4-Azocan-1-yl-7H-pyrrolo[2,3-d]pyrimidine], the melting point is reported as 225 to 226 °C. With Cc1cc2c(N(C)C3CCCCC3)ncnc2[nH]1 [Example 59, Cyclohexyl-methyl-(6-methyl-7H-pyrrolo[2,3-d]pyrimidin-4-yl)-amine] the melting point was 221 °C (dec.). Work on N#Cc1c[nH]c2ncnc(N3CCCCC3)c12 [Example 78, 4-Piperidin-1-yl-7H-pyrrolo[2,3-d]pyrimidine-5-carbonitrile] yielded a melting point of 209 to 211 °C. With CCCC1CCCCN1c1ncnc2[nH]ccc12 (stereo not drawn) [Example 24, 4-(2-Propyl-piperidin-1-yl)-7H-pyrrolo[2,3-d]pyrimidine] the melting point was 106 to 107 °C. With c1nc(N2CCCCCC2)c2cc[nH]c2n1 [Example 27, 4-Azepan-1-yl-7H-pyrrolo[2,3-d]pyrimidine] the melting point was 210 °C. With Clc1c[nH]c2ncnc(N3CCCCC3)c12 [Example 61, 5-Chloro-4-piperidin-1-yl-7H-pyrrolo[2,3-d]pyrimidine] the melting point was 170 to 172 °C. Clc1c[nH]c2ncnc(N3CCC4CCCCC43)c12 (stereo not drawn) [Example 62, 5-Chloro-4-(octahydro-indol-1-yl)-7H-pyrrolo[2,3-d]pyrimidine] showed a melting point of 193 °C.
